ChEMBL document CHEMBL1201862, “PubChem BioAssay data set” (2004)
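Step 1: Grow cells in 96-well plates. Step 2: Expose to compound for 48 hours at 5 concentrations. Step 3: Interpolate endpoints linearly; if unreached, use highest concentration. GI50 = concentration required for 50% inhibition of growth.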 Calls of active or inactive are those of the source. Cut-off read from the data, not from the text of the source: active = GI50 up to about 1.1 µM and inactive = higher.

Experiments:
Test in all cases: NCI tumour cell line growth inhibition, 48 h
A549 = tested on: A549
ACHN = tested on: ACHN
CAKI-1 = tested on: CAKI-1
COLO 205 = tested on: COLO 205
DU-145 = tested on: DU-145
HOP-62 = tested on: HOP-62
HOP-92 = tested on: HOP-92
Hs-578T = tested on: Hs-578T
IGROV-1 = tested on: IGROV-1
KM12 = tested on: KM12
MDA-MB-231 = tested on: MDA-MB-231
NCI-H226 = tested on: NCI-H226
NCI/ADR-RES = tested on: NCI/ADR-RES
OVCAR-3 = tested on: OVCAR-3
OVCAR-5 = tested on: OVCAR-5
RXF 393 = tested on: RXF 393
SF-539 = tested on: SF-539
SN12C = tested on: SN12C
TK-10 = tested on: TK-10
UO-31 = tested on: UO-31

Measured: GI50

COc1cc2c(cc1OCCCC(=O)Nc1cc(C(=O)Nc3cc(C(=O)Nc4cc(C(=O)NCCCN(C)C)n(C)n4)n(C)n3)n(C)n1)N=CC1CCCN1C2=O (stereo not given)
inactive: A549 55.2 µM | ACHN 13.2 µM | CAKI-1 18.2 µM | COLO 205 3.53 µM | DU-145 35.4 µM | HOP-62 45.5 µM | HOP-92 4.68 µM | Hs-578T 39.5 µM | IGROV-1 2.96 µM | KM12 21.1 µM | MDA-MB-231 24.2 µM | NCI-H226 28.4 µM | NCI/ADR-RES 31.8 µM | OVCAR-3 29.9 µM | OVCAR-5 32.6 µM | RXF 393 22.4 µM | SF-539 26.2 µM | SN12C 21.1 µM | TK-10 20.7 µM | UO-31 4.39 µM

Cn1c(=O)c2nc(CCCCc3nc4ccccc4[nH]3)[nH]c2n(C)c1=O
inactive: A549 > 100 µM | ACHN > 100 µM | CAKI-1 50.8 µM | COLO 205 > 100 µM | DU-145 > 100 µM | HOP-62 > 100 µM | HOP-92 21.4 µM | Hs-578T 30.3 µM | IGROV-1 > 100 µM | KM12 > 100 µM | MDA-MB-231 > 100 µM | NCI-H226 78.3 µM | NCI/ADR-RES > 100 µM | OVCAR-3 > 100 µM | OVCAR-5 > 100 µM | RXF 393 > 100 µM | SF-539 17 µM | SN12C > 100 µM | TK-10 > 100 µM | UO-31 35.4 µM

Cc1cn(CCCCOC(=O)NC(CCCNC(=N)N)C(=O)O)c(=O)[nH]c1=O (stereo not given)
inactive: A549 > 100 µM | ACHN > 100 µM | CAKI-1 > 100 µM | COLO 205 > 100 µM | DU-145 > 100 µM | HOP-62 > 100 µM | HOP-92 > 100 µM | Hs-578T > 100 µM | IGROV-1 > 100 µM | KM12 > 100 µM | MDA-MB-231 > 100 µM | NCI-H226 > 100 µM | NCI/ADR-RES > 100 µM | OVCAR-3 > 100 µM | OVCAR-5 > 100 µM | RXF 393 > 100 µM | SF-539 > 100 µM | SN12C > 100 µM | TK-10 > 100 µM | UO-31 > 100 µM

CCC[C@H](C)[C@H]1NC(=O)[C@@H](NC(=O)[C@@H](CC(C)C)N(C)C(=O)C2CCCN2C(=O)[C@H](C)O)[C@@H](C)OC(=O)[C@H](CC(C)C)N(C)C(=O)[C@@H]2CCCN2C(=O)[C@H](CC(C)C)NC(=O)[C@@H](C)C(=O)[C@H](C(C)C)OC(=O)C[C@@H]1O (stereo not given in full)
active: A549 < 0.0025 µM | ACHN < 0.0025 µM | CAKI-1 0.0162 µM | COLO 205 < 0.0025 µM | DU-145 < 0.0025 µM | HOP-62 < 0.0025 µM | HOP-92 < 0.0025 µM | Hs-578T < 0.0025 µM | IGROV-1 < 0.0025 µM | KM12 < 0.0025 µM | MDA-MB-231 < 0.0025 µM | NCI-H226 < 0.0025 µM | NCI/ADR-RES 0.189 µM | OVCAR-3 < 0.0025 µM | OVCAR-5 < 0.0025 µM | RXF 393 < 0.0025 µM | SF-539 < 0.0025 µM | SN12C < 0.0025 µM | TK-10 < 0.0025 µM | UO-31 0.0107 µM

CN(C)CCn1c(=O)c2ccc(NCCCN(C)CCCNc3ccc4c(=O)n(CCN(C)C)c(=O)n5c6ccc(O)cc6c(=O)c3c45)c3c(=O)c4cc(O)ccc4n(c1=O)c23
active: A549 < 0.01 µM | ACHN < 0.01 µM | CAKI-1 < 0.01 µM | COLO 205 < 0.01 µM | DU-145 < 0.01 µM | HOP-62 < 0.032 µM | HOP-92 < 0.0201 µM | Hs-578T 0.0234 µM | IGROV-1 < 0.01 µM | KM12 < 0.01 µM | MDA-MB-231 < 0.0244 µM | NCI-H226 < 0.01 µM | NCI/ADR-RES 0.181 µM | OVCAR-3 0.059 µM | OVCAR-5 0.0442 µM | RXF 393 < 0.0125 µM | SF-539 < 0.01 µM | SN12C < 0.01 µM | TK-10 < 0.0126 µM | UO-31 0.0107 µM

O=C(Nc1ccccc1)OCCN=c1c2ccccc2ccc2ccccc12
inactive: A549 19.9 µM | ACHN 20.9 µM | CAKI-1 26.4 µM | COLO 205 21 µM | DU-145 28.8 µM | HOP-62 28.2 µM | HOP-92 18.4 µM | Hs-578T 11.5 µM | IGROV-1 27.9 µM | KM12 19.1 µM | MDA-MB-231 24.9 µM | NCI-H226 32.1 µM | NCI/ADR-RES 21.3 µM | OVCAR-3 17.5 µM | OVCAR-5 41.5 µM | RXF 393 23.8 µM | SF-539 19.8 µM | SN12C 25.5 µM | TK-10 31.4 µM | UO-31 17 µM
